From patent publication US8404643B2, “Metastin derivatives and use thereof” (priority 2005, dated 2013)
Square brackets hold non-standard residues; d marks the D form. Peptide text beside a SMILES is read from it. * marks the point of attachment. Arg(Me) = CNC(=N)NCCC[C@H](N)C(=O)O; Decanoyl = CCCCCCCCCC(=O)*; Ahx = NCCCCCC(=O)O; NHPentyl = CCCCCN*; azaGly = NNC(=O)O

Biological target: T1, hOT7T175 (Homo sapiens, UniProt Q969F8)
T1 construct: expressed in transfected cells
Test: Assay for intracellular Ca ion level-increasing activity using FLIPR
Assay type: cell-based
Details: hOT7T175/CHO cells, relative to Metastin (1-54)
Experimental: In accordance with the method described in JPA 2000-312590, the intracellular Ca ion level-increasing activity was measured using FLIPR.
The stable expression cell line hOT7T175 was obtained by transfection of the expression plasmid pAK-rOT175 for animal cells into CHO/dhfr^− cells, using CellPhect Transfection Kit (Amersham Pharmacia Biotech, Inc.). First, 240 μL of Buffer A (attached to CellPhect Transfection Kit) was added to 9.6 μg of plasmid DNA dissolved in 240 μL of distilled water followed by stirring. After the mixture was settled for 10 minutes, 480 μL of Buffer B (attached to CellPhect Transfection Kit) was added to the mixture, which was vigorously stirred to form liposomes containing the DNA. Then, 4×10^5 CHO/dhfr^− cells (obtained from ATCC) were inoculated on a 60 mm Petri dish. After culturing the cells in Ham's F-12 medium (Nissui Seiyaku Co., Ltd.) supplemented with 10% fetal bovine serum (BIO WHITTAKER, Inc.) at 37° C. for 2 days in 5% carbon dioxide gas, […] of the liposomes were dropwise added to the cells on the Petri dish. After culturing the cells at 37° C. for 6 hours in 5% carbon dioxide gas, the cells were washed twice with serum-free Ham's F-12 medium and 3 mL of 15% glycerol was added to the cells on the Petri dish followed by treatment for 2 minutes. The cells were again washed twice with serum-free Ham's F-12 medium followed by incubation in Ham's F-12 medium supplemented with 10% fetal bovine serum at 37° C. for 15 hours in 5% carbon dioxide gas. The cells were dispersed by trypsin treatment to recover from the Petri dish. The recovered cells were inoculated on a 6-well plate in 1.25×10^4 cells/well and incubation was initiated at 37° C. in Dulbecco's modified Eagle medium (DMEM) medium (Nissui Seiyaku Co., Ltd.) containing 10% dialyzed fetal bovine serum (JRH BIOSCIENCES, Inc.) in 5% carbon dioxide gas. The plasmid-transfected CHO transformants grew in the medium but the non-transfected cells gradually died, accordingly the medium was exchanged on Days 1 and 2 after the initiation of incubation to remove the cells died. Approximately 20 colonies of the CHO transformants that kept growing on Days 8 to 10 after the incubation were isolated. From the cells in these colonies, cells showing high reactivity with the ligand peptide metastin (hereinafter merely referred to as hOT7T175/CHO) were selected to provide for the following experiment.
The intracellular Ca ion level-increasing activity of the synthetic peptide in hOT7T175/CHO was determined using FLIPR (Molecular Devices, Inc.).
hOT7T175/CHO was subcultured in DMEM supplemented with 10% dialyzed fetal bovine serum (hereinafter abbreviated as dFBS) (hereinafter referred to as 10% dFBS/DMEM) and provided for the experiment. The hOT7T175/CHO was suspended in 10% dFBS-DMEM in 15×10^4 cells/ml. The suspension was inoculated on a 96-well plate for FLIPR (Black Plate Clear Bottom, Coster, Inc.) at 200 μl/well (3.0×10^4 cells/200 μL/well), followed by incubation at 37° C. overnight in a 5% CO2 incubator (hereinafter referred to as the cell plate). Then, 21 ml of HANKS/HBSS (9.8 g of HANKS, 0.35 g of sodium hydrogencarbonate, 20 ml of 1M HEPES; after adjusting the pH to 7.4 with 1N sodium hydroxide, the mixture was sterilized by filtration), 210 μl of 250 mM Probenecid and 210 μl of fetal bovine serum (FBS) (HANKS/HBSS-Probenecid-FBS) were mixed.
Furthermore, 2 vials of Fluo3-AM (50 μg/vial) were dissolved in 21 μL of dimethylsulfoxide and 21 μL of 20% Pluronic acid. The resulting solution was added to and mixed with 10 ml of the HANKS/HBSS-Probenecid-FBS described above. After the culture medium was removed, the mixture was dispensed onto the cell plate in 100 μl each/well, followed by incubation at 37° C. for an hour in a 5% CO2 incubator (pigment loading). The peptide was dissolved in dimethylsulfoxide in 1×10^−3 M. The peptide solution was diluted with HANKS/HBSS containing 2.5 mM Probenecid, 0.2% BSA and 0.1% CHAPS. […]

T1 sequence (Q969F8 whole entry L364H): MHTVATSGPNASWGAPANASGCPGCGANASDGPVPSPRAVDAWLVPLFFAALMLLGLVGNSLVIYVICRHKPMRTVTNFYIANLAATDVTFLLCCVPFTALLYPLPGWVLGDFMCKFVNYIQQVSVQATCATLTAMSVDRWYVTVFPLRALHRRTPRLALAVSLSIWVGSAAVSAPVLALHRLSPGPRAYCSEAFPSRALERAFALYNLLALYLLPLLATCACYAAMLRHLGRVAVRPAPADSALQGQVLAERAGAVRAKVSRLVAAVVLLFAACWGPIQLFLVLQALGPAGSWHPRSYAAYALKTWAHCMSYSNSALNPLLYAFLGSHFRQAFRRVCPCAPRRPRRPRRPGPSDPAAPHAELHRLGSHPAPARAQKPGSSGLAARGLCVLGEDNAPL

SMILES | Specific Activity: intracellular Ca ion level-increasing activity [specific activity to Metastin (1-54)]
CNC(=N)NCCC[C@H](NC(=O)[C@H](CC(C)C)NC(=O)NNC(=O)[C@H](Cc1ccccc1)NC(=O)[C@@H](NC(=O)[C@H](CC(N)=O)NC(=O)C(CC1CCNCC1)NC(=O)[C@@H](Cc1ccc(O)cc1)NC(C)=O)[C@@H](C)O)C(=O)N[C@@H](Cc1c[nH]c2ccccc12)C(N)=O (mixture of isomers) [Compound No. 774, Ac-D-Tyr-DL-Ala(Pip)-Asn-Thr-Phe-AzaGly-Leu-Arg(Me)-Trp-NH2] | 2.0
CC(=O)N[C@H](Cc1ccc(O)cc1)C(=O)N[C@H](Cc1c[nH]c2ccccc12)C(=O)N[C@@H](CC(N)=O)C(=O)N[C@H](C(=O)N[C@@H](Cc1ccccc1)C(=O)NNC(=O)N[C@@H](CC(C)C)C(=O)N[C@H](CCCNC(=N)N)C(=O)N[C@@H](Cc1c[nH]c2ccccc12)C(N)=O)[C@@H](C)O [Compound No. 708, Ac-D-Tyr-D-Trp-Asn-Thr-Phe-AzaGly-Leu-D-Arg-Trp-NH2] (Ac-[dY][dW]NTF[azaGly]L[dR]W-NH2) | 12.8
CNC(=N)NCCC[C@H](NC(=O)[C@H](CC(C)C)NC(=O)NNC(=O)[C@H](Cc1ccccc1)NC(=O)[C@@H](NC(=O)[C@H](CC(N)=O)NC(C)=O)[C@@H](C)O)C(=O)N[C@@H](Cc1c[nH]c2ccccc12)C(N)=O [Compound No. 709, Ac-Asn-Thr-Phe-AzaGly-Leu-Arg(Me)-Trp-NH2] (Ac-NTF[azaGly]L[Arg(Me)]W-NH2) | 9.8
CCCCCCCCCC(=O)N[C@@H](CC(N)=O)C(=O)N[C@H](C(=O)N[C@@H](Cc1ccccc1)C(=O)NNC(=O)N[C@@H](CC(C)C)C(=O)N[C@@H](CCCNC(=N)NC)C(=O)N[C@@H](Cc1c[nH]c2ccccc12)C(N)=O)[C@@H](C)O [Compound No. 710, Decanoyl-Asn-Thr-Phe-AzaGly-Leu-Arg(Me)-Trp-NH2] (Decanoyl-NTF[azaGly]L[Arg(Me)]W-NH2) | 7.2
CNC(=N)NCCC[C@H](NC(=O)[C@H](CC(C)C)NC(=O)NNC(=O)[C@H](Cc1ccccc1)NC(=O)[C@@H](NC(=O)[C@H](CC(N)=O)NC(=O)CCCCCN)[C@@H](C)O)C(=O)N[C@@H](Cc1c[nH]c2ccccc12)C(N)=O [Compound No. 712, Acp-Asn-Thr-Phe-AzaGly-Leu-Arg(Me)-Trp-NH2] (H-[Ahx]NTF[azaGly]L[Arg(Me)]W-NH2) | 8.9
CNC(=N)NCCC[C@H](NC(=O)[C@H](CC(C)C)NC(=O)NNC(=O)[C@H](Cc1ccccc1)NC(=O)[C@@H](NC(=O)[C@H](CC(N)=O)NC(=O)CCCCCNC(C)=O)[C@@H](C)O)C(=O)N[C@@H](Cc1c[nH]c2ccccc12)C(N)=O [Compound No. 713, Ac-Acp-Asn-Thr-Phe-AzaGly-Leu-Arg(Me)-Trp-NH2] (Ac-[Ahx]NTF[azaGly]L[Arg(Me)]W-NH2) | 3.7
CCCCCNC(=O)C[C@H](NC(=O)[C@@H](Cc1c[nH]c2ccccc12)NC(=O)[C@@H](Cc1ccc(O)cc1)NC(C)=O)C(=O)N[C@H](C(=O)N[C@@H](Cc1ccccc1)C(=O)NNC(=O)N[C@@H](CC(C)C)C(=O)N[C@@H](CCCNC(=N)NC)C(=O)N[C@@H](Cc1c[nH]c2ccccc12)C(N)=O)[C@@H](C)O [Compound No. 714, Ac-D-Tyr-D-Trp-Asp(NHPen)-Thr-Phe-AzaGly-Leu-Arg(Me)-Trp-NH2] (Ac-[dY][dW]D(NHPentyl)TF[azaGly]L[Arg(Me)]W-NH2) | 0.7
